Source: US20090053168A1, “TREATMENTS OF B-CELL PROLIFERATIVE DISORDERS” (priority 2007, published 2009)
Where “and” joins values, the source holds several entries; their conditions need not be identical. Identical values can stand only once. Like-named read-outs stand apart in the source and are kept apart here.

How the values were obtained:
[1] = system: Karpas 422 DLBCL cells; assay: Anti-proliferation assay (ATPLite, 72 h), Karpas 422; type: cell-based; settings: in combination with CGS-21680
[2] = system: OCI-ly10 DLBCL cells; assay: Anti-proliferation assay (ATPLite, 72 h), OCI-ly10; type: cell-based; settings: in combination with CGS-21680
[3] = system: SU-DHL6 DLBCL cells; assay: Anti-proliferation assay (ATPLite, 72 h), SU-DHL6; type: cell-based; settings: in combination with CGS-21680
[4] = system: H929 cells; assay: Anti-proliferation assay (ATPLite, 72 h), H929; type: cell-based
[5] = system: ANBL-6 cells; assay: Anti-proliferation assay (ATPLite, 72 h), ANBL-6; type: cell-based; settings: in combination with CGS-21680
[6] = system: RPMI-8226 cells; assay: Anti-proliferation assay (ATPLite, 72 h), RPMI-8226; type: cell-based
[7] = system: KSM-12-PE cells; assay: Anti-proliferation assay (ATPLite, 72 h), KSM-12-PE; type: cell-based; settings: in combination with CGS-21680; KSM-12-PE
[8] = system: MOLP-8 cells; assay: Anti-proliferation assay (ATPLite, 72 h), MOLP-8; type: cell-based; settings: in combination with CGS-21680
[9] = system: OPM2 cells; assay: Anti-proliferation assay (ATPLite, 72 h), OPM2; type: cell-based, human; settings: for synergy score: in combination with CGS-21680, OPM-8
[10] = system: EJM cells; assay: Anti-proliferation assay (ATPLite, 72 h), EJM; type: cell-based; settings: in combination with CGS-21680
[11] = system: MM.1S cells; assay: Anti-proliferation assay (ATPLite, 72 h), MM.1S; settings: for synergy score: in combination with CGS-21680, MM.1S; for IC50: 2-fold dilutions
[12] = system: GA-10 (Burkitt's lymphoma) cells; assay: Anti-proliferation assay (ATPLite, 72 h), GA-10; type: cell-based; settings: x dexamethasone
[13] = system: mantle cell lymphoma cell line JVM-13; assay: Anti-proliferation assay (ATPLite, 72 h), JVM-13; type: cell-based, human
Description: (§1) All of the cell lines were cultured in RPMI-1640 media supplemented with 10% FBS except OCI Ly10 cells (IMDM media supplemented with 20% human serum). The ANBL-6 cell line culture media also contained 10 ng/ml IL-6. MM.1S, MM.1R, SU-DHL6, Karpas 422, and OCI ly10 cells were provided by the Dana Farber Cancer Institute. ANBL-6 cells were provided by Bob Orlowsli (M.D. Anderson Cancer Research Center). H929, RPMI-8226, GA-10, Farage, Mino, JVM-13, Pfeiffer, Toledo, and Kusami-1 cells were from ATCC (Cat #'s CCL-155, CRL-9068, CRL-2392 CRL-2630, CRL-3000, CRL-3003, CRL-2632, CRL-2631, and CRL-2724 respectively). MOLP-8, OPM2, EJM, and KSM-12-PE cells were from DSMZ.
(§2) Compounds were prepared in DMSO at 1000× the highest desired concentration. Master plates were generated consisting of serially diluted compounds in 2- or 3-fold dilutions in 384-well format. For single agent dose response curves, the master plates consisted of 9 individual compounds at 12 concentrations in 2- or 3-fold dilutions. For combination matrices, master plates consisted of individual compounds at 6 or 9 concentrations at 2- or 3-fold dilutions.
(§3) The average untreated well value (avg. untreated wells) is the arithmetic mean of 40 wells from the same assay plate treated with vehicle alone. Negative inhibition values result from local variations in treated wells as compared to untreated wells.
(§4) The uncertainty of each fitted parameter was estimated from the range over which the change in reduced chi-squared was less than one, or less than minimum reduced chi-squared if that minimum exceeded one, to allow for underestimated σI errors.
(§5) Single agent curve data were used to define a dilution series for each compound to, be used for combination screening in a 6×6 matrix format. […] For compounds with no detectable single agent activity, a dilution factor of 4 was used, starting from the highest achievable concentration.
(§6) The Loewe additivity model was used to quantify combination effects. Combinations were ranked initially by Additivity Excess Volume, which is defined as ADD Volume=ΣCX, CY(Idata−ILoewe). where ILoewe(CX,CY) is the inhibition that satisfies (CX/ECX)+(CY/ECY)=1, and ECX,Y are the effective concentrations at ILoewe for the single agent curves. A “Synergy Score” was also used, where the Synergy Score S=log fX log fY ΣIdata (Idata−ILoewe), summed over all non-single-agent concentration pairs, and where log fX,Y is the natural logarithm of the dilution factors used for each single agent.

[14] = system: mantle cell lymphoma cell line Mino; assay: Anti-proliferation assay (ATPLite, 72 h), Mino; type: cell-based, human
Description: as §1, §2, §3, §4, §5, §6

[15] = system: Farage (non-Hodgkin's B cell lymphoma) cells; assay: Anti-proliferation assay (ATPLite, 72 h), Farage; type: cell-based; settings: x dexamethasone
[16] = combination with dexamethasone, Loewe-based Synergy Score, 72 h
[17] = Homo sapiens, MM1.S, read-out: percent inhibition of cell proliferation

## Cn1c2ccccc2c2c3c(c4c5ccccc5n(CCC#N)c4c21)CNC3=O [Go 6976]
[1]
  synergy score: 2.91
[2]
  synergy score: 1.61
[3]
  synergy score: 3.69

## COc1cc2c(cc1OC)-c1cc(=Nc3c(C)cc(C)cc3C)n(C)c(=O)n1CC2 [Trequinsin, 2,3,6,7-tetrahydro-9,10-dimethoxy-3-methyl-2-((2,4,6-trimethylphenyl)imino)-4H-pyrimido(6,1-a)isoquinolin-4-one]
[4]; [16]
  Synergy score with dexamethasone, H929: 2.68
[1]
  synergy score: 2.11
[5]
  synergy score: 4.55
[6]; [16]
  Synergy score with dexamethasone, RPMI-8226: 5.76
[7]
  synergy score: 2.44
[2]
  synergy score: 1.64
[8]
  synergy score: 4.7
[3]
  synergy score: 0.92
[9]
  synergy score: 4.74
[10]
  synergy score: 4.81
[11]; [17]
  inhibition at 0.00462 µM: 10%
  inhibition at 0.0139 µM: 1.4%
  inhibition at 0.0416 µM: 5.5%
  inhibition at 0.374 µM: -1.6%
  inhibition at 1.12 µM: -6.1%
  inhibition at 3.37 µM: 11%
  inhibition at 10.1 µM: 33%
[11]; [16]
  Synergy score with dexamethasone, MM.1S: 3.21
[11]
  synergy score: 6.71

## O=C(Nc1c(Cl)cncc1Cl)c1ccc(OC(F)F)c(OCC2CC2)c1 [roflumilast]
[1]
  synergy score: 3.38
[5]
  synergy score: 3.73
[7]
  synergy score: 0.27
[2]
  synergy score: 3.32
[8]
  synergy score: 3.44
[3]
  synergy score: 0.93
[9]
  synergy score: 0.29
[10]
  synergy score: 1.06
[11]
  synergy score: 2.54

## CCCCC#Cc1nc(N)c2ncn([C@@H]3O[C@H](C(=O)NCC)[C@@H](O)[C@H]3O)c2n1 [HE-NECA, hexynyladenosine-5′-N-ethylcarboxamide]
[4]
  Synergy score with dexamethasone, H929: 7.62
[12]
  synergy score: 1.64
[13]; HE-NECA 2.5 nM alone
  percent inhibition of cell proliferation: −0.9%
[13]; HE-NECA 5 nM alone
  percent inhibition of cell proliferation: −1.5%
[13]; HE-NECA 10 nM alone
  percent inhibition of cell proliferation: 2.1%
[13]; HE-NECA 20 nM alone
  percent inhibition of cell proliferation: −9.7%
[6]
  Synergy score with dexamethasone, RPMI-8226: 17.7
[14]; HE-NECA 2.5 nM alone
  percent inhibition of cell proliferation: 7.9% and 4.1%
[14]; HE-NECA 5 nM alone
  percent inhibition of cell proliferation: 12%
[14]; HE-NECA 10 nM alone
  percent inhibition of cell proliferation: 10% and 4.7%
[9]; HE-NECA 2.5 nM alone
  percent inhibition of cell proliferation: 1%
[9]; HE-NECA 5 nM alone
  percent inhibition of cell proliferation: 2.6%
[9]; HE-NECA 10 nM alone
  percent inhibition of cell proliferation: 0.4%
[9]; HE-NECA 20 nM alone
  percent inhibition of cell proliferation: 4.8%
[15]
  synergy score: 3.6
[11]
  Synergy score with dexamethasone, MM.1S: 8.94
  percent inhibition of cell proliferation: 46% and 31%
[11]; HE-NECA 0.181 nM alone
  percent inhibition of cell proliferation: −0.91%
[11]; HE-NECA 0.363 nM alone
  percent inhibition of cell proliferation: 9.2%
[11]; HE-NECA 0.725 nM alone
  percent inhibition of cell proliferation: 11%
[11]; HE-NECA 2.9 nM alone
  percent inhibition of cell proliferation: 35%
[11]; HE-NECA 5.8 nM alone
  percent inhibition of cell proliferation: 42%
[11]; HE-NECA 23.2 nM alone
  percent inhibition of cell proliferation: 51%
[11]; RPMI-8226, H929, MM.1S and MM.1R MM cell lines
  activity and synergy in antiproliferation assays: active and synergistic
[11]; read-out: IC50 (+IL-6), MM.1S cells grown in presence of 10 ng/ml IL-6
  IC50: 0.88 nM
[11]; read-out: IC50 (no IL-6), MM.1S cells grown in absence of IL-6
  IC50: 6.5 nM
